Laboratory results as given in PMC5104425, “A Novel Selective Inhibitor of Delta-5 Desaturase Lowers Insulin Resistance and Reduces Body Weight in Diet-Induced Obese C57BL/6J Mice” (PLoS ONE, 2016).
Structures can show the parent of a compound that is named as a salt.

Tests used:
Assay type in all cases: in vivo, C57BL/6J mice
[1] = system: DIO mice; assay: Anti-obesity effects in DIO mice, 6-week treatment (HFD D12492): BW, calorie intake, observations; settings: sibutramine 30 mg/kg p.o.
Procedure: In this report, we performed 3 independent studies in DIO mice to characterize anti-obesity effects of our D5D specific inhibitor. Male C57BL/6J mice were obtained from Charles River Laboratories (Yokohama, Japan) or CLEA Japan (Osaka, Japan). The mice were fed a laboratory chow and water ad libitum and housed in a 12-h light/dark cycle. Compound or vehicle was administered once daily between 15: 00–19:00 by oral gavage. Body weight (BW) and food intake were monitored throughout the experiment.
(§1) Mice were fed a high-fat diet (HFD) that has 60% kcal from fat and contains 0.09% (w/w) AA (D12492; Research diets, Inc., see S1 Table for fatty acid profile) from 5 weeks of age, and they were divided into 5 groups (7 animals per group) at 11 weeks of age based on BW and daily food intake. In this experiment, 30 mg/kg sibutramine, a […], was used as a positive control for anti-obesity effects. Mice were orally administered compound-326 at doses of 0.1, 1, and 10 mg/kg, sibutramine at a dose of 30 mg/kg, or vehicle for 6 weeks. After 6 weeks, blood concentrations of DGLA and AA under non-fasting condition were evaluated as pharmacodynamics (PD) markers, and oral glucose tolerance test (OGTT) was performed.

[2] = system: D5D; assay: Blood fatty acids (PD markers AA, DGLA, EPA, DHA) after 6-week treatment in DIO mice; settings: sibutramine 30 mg/kg, 6 weeks
Procedure: Fatty acids were extracted from blood and tissues by adding hexane-isopropanol-butylated hydroxytoluene (60:40:0.01, v/v/w). Samples were vortexed for 30 min. The hexane phase was removed and evaporated to dryness under nitrogen stream and vacuum. Dried samples were dissolved in methanol and analyzed by HPLC.
as §1

[3] = system: DIO mice; assay: Oral glucose tolerance test and HOMA-IR after 6-week treatment in DIO mice; settings: sibutramine 30 mg/kg, 6 weeks
Procedure: as §1
On the last day of the experiment, mice were given an oral glucose load (2 g/kg) after overnight fasting. Blood samples were collected at specified time points of 0 (pre-glucose/fasting glucose levels), 10, 30, 60, and 120 min post glucose load for the determination of plasma glucose as well as insulin levels. Plasma glucose was enzymatically measured with auto-analyzer 7180 (Hitachi High-Technologies Corporation, Tokyo, Japan). Plasma insulin was measured with mouse insulin ELISA kit (Shibayagi, Gunma, Japan). The total area under the glucose curve was determined from time 0 to 120 min (AUC0–120 min) after glucose administration. Homeostasis model assessment-insulin […] (HOMA-IR) was calculated using the formula: [(fasted PG: mg/dL)×(fasted insulin; μU/mL)[…]/405] [28].

SMILES: CC(C)CC(N(C)C)C1(c2ccc(Cl)cc2)CCC1 (stereo not drawn) [sibutramine, Sibutramine hydrochloride monohydrate, reference compound]
- BW ([1]; 6 weeks, BW then increased in line with food intake): potent BW loss for a week
- food intake ([1]; from day 1, followed by a rebound): transient and potent decrease in food intake
- blood AA level [2]: slightly but significantly decreased
- blood AA to DGLA ratio [2]: slightly but significantly decreased
- blood DGLA level [2]: slightly but significantly decreased
- HOMA-IR [3]: significantly improved
